Reference: patent US10519177B2, “Heterocyclic compounds and uses thereof” (Plexxikon Inc., priority 2013, dated 2019)

Tested on: bromodomain
Assay: at least one of the bromodomain cell assays of Example 57
Format: cell-based
Details: at least one of the bromodomain cell assays described in Example 57; read-out: IC50 in at least one of the bromodomain cell assays

IC50, < 10 µM:
Cc1noc(C)c1-c1cnc2c(c1)c(C(c1ccccc1)c1ccccc1)cn2C(F)F [P-0739, 4-[3-benzhydryl-1-(difluoromethyl)pyrrolo[2,3-b]pyridin-5-yl]-3,5-dimethyl-isoxazole]
Cc1noc(C)c1-c1cnc2c(-c3ccc(C(=O)O)cc3)cn(CC3(C)COC3)c2c1 [P-0767, 4-[6-(3,5-dimethylisoxazol-4-yl)-1-[(3-methyloxetan-3-yl)methyl]pyrrolo[3,2-b]pyridin-3-yl]benzoic acid]
Cc1noc(C)c1-c1cnc2c(-c3ccc(C(=O)O)cc3)cn([C@@H](c3ccccn3)C3CCCC3)c2c1 [P-0820, 4-[1-[(R)-cyclopentyl(2-pyridyl)methyl]-6-(3,5-dimethylisoxazol-4-yl)pyrrolo[3,2-b]pyridin-3-yl]benzoic acid]
COC(=O)c1ccc(-c2cn(CC3CC4CC4C3)c3cc(-c4c(C)noc4C)cnc23)cc1 (centres unmarked) [P-0609, methyl 4-[1-(3-bicyclo[3.1.0]hexanylmethyl)-6-(3,5-dimethylisoxazol-4-yl)pyrrolo[3,2-b]pyridin-3-yl]benzoate]
Cc1noc(C)c1-c1cnc2c(-c3ccc(S(C)(=O)=O)cc3)cn(CC3CCC(F)(F)CC3)c2c1 [P-0619, 4-[1-[(4,4-difluorocyclohexyl)methyl]-3-(4-methylsulfonylphenyl)pyrrolo[3,2-b]pyridin-6-yl]-3,5-dimethyl-isoxazole]
Cc1noc(C)c1-c1ccc2c(-c3ccc(C(=O)O)cc3)cn([C@H](c3ccccc3)c3ccccn3)c2c1 [P-0755, 4-[6-(3,5-dimethylisoxazol-4-yl)-1-[(R)-phenyl(2-pyridyl)methyl]indol-3-yl]benzoic acid]
Cc1noc(C)c1-c1cnc2c(-c3ccc4c(c3)CCOC4=O)cn(CC3CCC(F)(F)CC3)c2c1 [P-0798, 6-[1-[(4,4-difluorocyclohexyl)methyl]-6-(3,5-dimethylisoxazol-4-yl)pyrrolo[3,2-b]pyridin-3-yl]isochroman-1-one]
Cc1nnn(C)c1-c1cnc2c(-c3ccc(CC(=O)O)cc3)cn(CC3(F)CCC(F)(F)CC3)c2c1 [P-0812, 2-[4-[6-(3,5-dimethyltriazol-4-yl)-1-[(1,4,4-trifluorocyclohexyl)methyl]pyrrolo[3,2-b]pyridin-3-yl]phenyl]acetic acid]
Cc1cc(-c2ccc3c(-c4ccc(C(=O)O)cc4)cn([C@@H](C)c4ccccn4)c3c2)cn(C)c1=O [P-0762, 4-[6-(1,5-dimethyl-6-oxo-3-pyridyl)-1-[(1S)-1-(2-pyridyl)ethyl]indol-3-yl]benzoic acid]
Cc1noc(C)c1-c1cnc2c(c1)c(C(c1ccccn1)c1ccccn1)cn2-c1ccc(C(=O)O)cn1 [P-0737, 6-[3-[bis(2-pyridyl)methyl]-5-(3,5-dimethylisoxazol-4-yl)pyrrolo[2,3-b]pyridin-1-yl]pyridine-3-carboxylic acid]
Cc1ccc(-c2cn(CC3CCOCC3)c3cc(-c4c(C)noc4C)cnc23)cc1 [P-0793, 3,5-dimethyl-4-[3-(p-tolyl)-1-(tetrahydropyran-4-ylmethyl)pyrrolo[3,2-b]pyridin-6-yl]isoxazole]
CCOC(=O)c1ccc(-c2cn([C@@H](c3ccccc3)c3ccccn3)c3cc(-c4c(C)noc4C)ccc23)cc1 [P-0752, ethyl 4-[6-(3,5-dimethylisoxazol-4-yl)-1-[(S)-phenyl(2-pyridyl)methyl]indol-3-yl]benzoate]
Cc1noc(C)c1-c1cnc2[nH]cc(C(c3ccccn3)c3ccccn3)c2c1 [P-0733, 4-[3-[bis(2-pyridyl)methyl]-1H-pyrrolo[2,3-b]pyridin-5-yl]-3,5-dimethyl-isoxazole]
Cc1ccc(-c2cn([C@H](c3ccccc3)c3ccccn3)c3cc(-c4c(C)noc4C)cnc23)cc1 [P-0725, 3,5-dimethyl-4-[1-[(R)-phenyl(2-pyridyl)methyl]-3-(p-tolyl)pyrrolo[3,2-b]pyridin-6-yl]isoxazole]
Cc1noc(C)c1-c1cnc2c(c1)c(C(c1ccccc1)c1ccccc1)cn2-c1ccc(C(=O)O)cn1 [P-0742, 6-[3-benzhydryl-5-(3,5-dimethylisoxazol-4-yl)pyrrolo[2,3-b]pyridin-1-yl]pyridine-3-carboxylic acid]
Cc1noc(C)c1-c1cnc2c(-c3ccc(C(=O)O)cc3)cn(CC3CCCCO3)c2c1 (centres unmarked) [P-0768, 4-[6-(3,5-dimethylisoxazol-4-yl)-1-(tetrahydrpyran-2-ylmethyl)pyrrolo[3,2-b]pyridin-3-yl]benzoic acid]
Cc1noc(C)c1-c1cnc2c(-c3ccc(P(=O)(O)O)cc3)cn(CC3CCCCC3)c2c1 [P-0701, [4-[1-(cyclohexylmethyl)-6-(3,5-dimethylisoxazol-4-yl)pyrrolo[3,2-b]pyridin-3-yl]phenyl]phosphonic acid]
Cc1noc(C)c1-c1cnc2c(-c3ccc(C(=O)O)cc3)cn(C(c3ccccc3)c3ccccn3)c2c1 (centres unmarked) [P-0611, 4-[6-(3,5-dimethylisoxazol-4-yl)-1-[phenyl(2-pyridyl)methyl]pyrrolo[3,2-b]pyridin-3-yl]benzoic acid]
COC(=O)c1ccc(-c2cn([C@@H](c3ccccc3)c3ccccn3)c3cc(-c4c(C)noc4C)cnc23)cc1 [P-0715, methyl 4-[6-(3,5-dimethylisoxazol-4-yl)-1-[(S)-phenyl(2-pyridyl)methyl]pyrrolo[3,2-b]pyridin-3-yl]benzoate]
Cc1noc(C)c1-c1ccc2c(-c3ccc([N+](=O)[O-])nc3)cn(CC3CCC(F)(F)CC3)c2c1 [P-0750, 4-[1-[(4,4-difluorocyclohexyl)methyl]-3-(6-nitro-3-pyridyl)indol-6-yl]-3,5-dimethyl-isoxazol]
Cc1noc(C)c1-c1cnc2c(-c3cnn(C)c3)cn([C@H](c3ccccc3)c3ccccn3)c2c1 [P-0732, 3,5-dimethyl-4-[3-(1-methylpyrazol-4-yl)-1-[(R)-phenyl(2-pyridyl)methyl]pyrrolo[3,2-b]pyridin-6-yl]isoxazole]
CCOC(=O)c1ccc(-c2cn([C@H](c3ccccc3)c3ccccn3)c3cc(-c4c(C)noc4C)cnc23)cc1 [P-0727, ethyl 4-[6-(3,5-dimethylisoxazol-4-yl)-1-[(R)-phenyl(2-pyridyl)methyl]pyrrolo[3,2-b]pyridin-3-yl]benzoate]
COC(=O)c1ccc(-c2cn(C(c3ccccc3)c3ccccn3)c3cc(-c4c(C)noc4C)cnc23)cc1 (centres unmarked) [P-0610, methyl 4-[6-(3,5-dimethylisoxazol-4-yl)-1-[phenyl(2-pyridyl)methyl]pyrrolo[3,2-b]pyridin-3-yl]benzoate]
[2H]C([2H])([2H])c1noc(C([2H])([2H])[2H])c1-c1cnc2c(-c3cnn(CC(F)(F)F)c3)cn(CC3CCC(F)(F)CC3)c2c1 [P-0615, 4-[1-[(4,4-difluorocyclohexyl)methyl]-3-[1-(2,2,2-trifluoroethyl)pyrazol-4-yl]pyrrolo[3,2-b]pyridin-6-yl]-3,5-bis(trideuteriomethyl)isoxazole]
Cc1ccc(-c2cn(CC3CC4CC4C3)c3cc(-c4c(C)noc4C)cnc23)cc1 (centres unmarked) [P-0795, 4-[1-(3-bicyclo[3.1.0]hexanylmethyl)-3-(p-tolyl)pyrrolo[3,2-b]pyridin-6-yl]-3,5-dimethyl-isoxazole]
Cc1nnn(C)c1-c1cnc2c(-c3ccc(C(C)(C)C)cc3)cn(CC3(F)CCC(F)(F)CC3)c2c1 [P-0809, 3-(4-tert-butylphenyl)-6-(3,5-dimethyltriazol-4-yl)-1-[(1,4,4-trifluorocyclohexyl)methyl]pyrrolo[3,2-b]pyridine]
Cn1cc(-c2ccc3c(-c4ccc(C(=O)O)cc4)cn(CC4CCCCC4)c3c2)cc(Cl)c1=O [P-0763, 4-[6-(5-chloro-1-methyl-6-oxo-3-pyridyl)-1-(cyclohexylmethyl)indol-3-yl]benzoic acid]
Cc1noc(C)c1-c1cnc2c(c1)c(C(c1ccccn1)c1ccccn1)cn2C(F)F [P-0734, 4-[3-[bis(2-pyridyl)methyl]-1-(difluoromethyl)pyrrolo[2,3-b]pyridin-5-yl]-3,5-dimethyl-isoxazole]
COc1cc(-c2cn(CC3CCC(F)(F)CC3)c3cc(-c4c(C)noc4C)ccc23)ccc1C(=O)O [P-0746, 4-[1-[(4,4-difluorocyclohexyl)methyl]-6-(3,5-dimethylisoxazol-4-yl)indol-3-yl]-2-methoxy-benzoic acid]
COC(=O)c1ccc(-c2cn(C(c3ccccc3)c3ccccc3)c3cc(-c4c(C)noc4C)cnc23)cc1 [P-0617, methyl 4-[1-benzhydryl-6-(3,5-dimethylisoxazol-4-yl)pyrrolo[3,2-b]pyridin-3-yl]benzoate]
Cc1noc(C)c1-c1cnc2c(-c3ccc4c(c3)COC4=O)cn(CC3CCCCC3)c2c1 [P-0797, 5-[1-(cyclohexylmethyl)-6-(3,5-dimethylisoxazol-4-yl)pyrrolo[3,2-b]pyridin-3-yl]-3H-isobenzofuran-1-one]
Cc1ccc(-c2cn([C@H](c3ccccn3)C3CCCC3)c3cc(-c4c(C)noc4C)cnc23)cc1 [P-0822, 4-[1-[(S)-cyclopentyl(2-pyridyl)methyl]-3-(p-tolyl)pyrrolo[3,2-b]pyridin-6-yl]-3,5-dimethyl-isoxazole]
Cc1cc(-c2cnc3c(-c4ccc(C(=O)OC(C)(C)C)cc4)cn(CC4CCC(F)(F)CC4)c3c2)cn(C)c1=O [P-0612, tert-butyl 4-[1-[(4,4-difluorocyclohexyl)methyl]-6-(1,5-dimethyl-6-oxo-3-pyridyl)pyrrolo[3,2-b]pyridin-3-yl]benzoate]
COc1cc(-c2cn(CC3(C)CCCCC3)c3cc(-c4c(C)noc4C)cnc23)ccc1C(=O)O [P-0780, 4-[6-(3,5-dimethylisoxazol-4-yl)-1-[(1-methylcyclohexyl)methyl]pyrrolo[3,2-b]pyridin-3-yl]-2-methoxy-benzoic acid]
Cc1noc(C)c1-c1cnc2c(-c3ccc(C4(C(=O)O)CC4)cc3)cn(CC3(C)CCCCC3)c2c1 [P-0782, 1-[4-[6-(3,5-dimethylisoxazol-4-yl)-1-[(1-methylcyclohexyl)methyl]pyrrolo[3,2-b]pyridin-3-yl]phenyl]cyclopropanecarboxylic acid]
